Assays:
KG1 cells = test: Immunoblot densitometry; assay type: cell-based, human; conditions: KG1, 24 h; 5 µM DDA, 2 µM TO, 2 µM GW, 10 µM 22(R)HC
Procedure: (§1) Immunoblotting was carried out as described previously. Proteins were separated on SDS-PAGE gels, electro-transferred onto polyvinylidene difluoride membranes and incubated overnight at 4 °C with the following antibodies: anti-Atg3, anti-Atg5 (D1G9), anti-Atg7 (D12B11), anti-Beclin (D40C5), anti-caspase-3 (Cell Signaling), anti-Bcl-2 (Millipore), anti-Bax (Millipore), anti-LC3 (Sigma-Aldrich), anti-LXRα (SantaCruz), anti-LXRβ (SantaCruz), anti-Nur77 (Active motif), anti-NOR1 (R&D systems), anti-PARP (Cell Signaling), anti-Vps34 (Cell Signaling), or anti-Actin (Millipore). For visualization, an ECL plus kit (Amersham Biosciences) was used, and chemiluminescence was measured by autoradiography (Supplementary Fig. 9). Specific bands were quantified with ImageQuant software.
Supplementary Fig. 6. […]
D ata from b, f, g, h, j, p, q ar e the m eans ± S.E.M. of 3 independent experiments performed in triplicate (*P<0.05, **P<0.01, ***P<0.001, t test). Images are representative of 3 independent experim ents.
Supplementary Fig. 7. a Im munoblots of Nur77 and NOR1 proteins in cells treated or not for 24 h with 5 µM DDA. b Real-time PCR of Nur77 and NOR1 expression in KG1 cells stably transfected with control shRNA (clone shCTRL) or with shRNA against LXRβ (clones sh3LXRβ and sh4LXRβ) and treated with 10 µM DDA for 24 h. c Immunoblots of Nur77 and NOR1 protein expression in KG1 cells stably transfected with control shRNA (clone shCTRL), shRNA against Nur77 (shNur77), shRNA against NOR1 (shNOR1), or shRNAs against both Nur77 and NOR1 (shNur77 + shNOR1). d NOD/SCID mice
(n=16- 20 mice/group) engrafted with KG1 cells or HL60 cells were treated with DDA (20 mg/kg/day, i.p.) or solvent vehicle (control). Tumor growth was monitored over time and was analyzed for significance using repeated measures ANOVA (***P<0.001). The mean tumor volumes ± SEM are shown. e Average tumor weight at the end of the experiments in d. *P<0.5, **P<0.01, ANOVA. f Mean tumor volumes measured at the end of the experiments for HL60 and KG1 graf ted into NOD/SCID or NMRI-Fo x1 -nude mice treated with DDA (40 mg/kg/day, p.o. or 20 mg/kg/day, i.p.) or solvent vehicle (control) (n=10- 20 mice per group). Values represent the means ± S.E.M. (**P<0.01, ***P<0.001, ANOVA). g Histochemical analysis of the expression of LC3 and P62 in HL60 tumor sections isolated from NOD/SCID mice treated or not with DDA (20 mg/kg/day, i.p.). h Quantification of LC3 punctate cells in shCTRL and shLXRβ KG1 tumors. i Quantification of DDA levels in tumors 4 h after the final administration of DDA. j Box plot of TCGA RNA-seq data from patients with melanoma showing that LXRβ is the predominant LXR isoform expressed.
***P<0.001. k, l Immunoblotting of the indicated proteins in primary AML cells exposed to vehicle or 5 µM DDA for 24 h. m, n qPCR analysis of the expression of Nur77 and NOR1 in primary AML cells from 10 patients exposed to vehicle or DDA for 24 h. Bars represent S.E.M. (**P<0.01, ***P<0.001, t test). Data from b, h, i represent means ± S.E.M. of triplicate samples (>100 cell analyses per sample), **P<0.01, ***P<0.001, t test. All data or images are representative of 3 independent experiments.

B16F10 cells = test: RT-qPCR of LXR-responsive genes; assay type: cell-based, mouse; conditions: 8 h, 2.5 µM DDA, 10 µM 22(R)HC, 1 µM GW, 100 nM TO, vs vehicle
Procedure: Total RNA was extracted from tumor cells or MEFs using an RNA Extraction kit (Qiagen) or Trizol (Invitrogen), respectively, and was quantified with NanoDrop. Complementary DNA (cDNA) synthesis was performed with 1 μg RNA iScript Reverse Transcriptase (Bio-Rad). 25 ng cDNA was amplified using SyBR Supermix (Bio-Rad). RNA expression of the different genes of interest (Supplementary Tables 1, 2) were determined using the ΔΔCT method, where the difference in the threshold cycle (ΔCT) values of the target gene and the housekeeping gene for each sample was normalized to the ΔCT value of the untreated sample.
Supplementary Fig. 4. a R egulat ion of LXR-responsive genes b y D DA and other k nown LXR
ligands in B16F10 and SKMEL- 28 cells transfected with s iRN A targeting LXRβ ( siLXRβ) or
with contro l siRN A scram ble (siSC). Cells were treated for 8 h with either solvent vehicle, 2.5
µM DD A, 10 µM 22(R) hydrox ycholesterol (22(R)HC), 1 µM GW 3965 (GW ) or 100 nM
T O901317 (T O). […]

SKMEL-28 cells = test: Immunoblot densitometry (LC3-II); assay type: cell-based, human; conditions: SKMEL-28, 24 h; 2.5 µM DDA, 10 µM 22(R)HC, 100 nM TO
Procedure: as §1

O=S(=O)(c1ccccc1)N(CC(F)(F)F)c1ccc(C(O)(C(F)(F)F)C(F)(F)F)cc1 [TO, TO901317]
LC3-II protein, densitometry relative to control (KG1 cells): 1.0
ABCA1 mRNA (B16F10 cells; B16F10, siCT): 8.5±1.8 fold
ABCG1 mRNA (B16F10 cells; B16F10, siCT): 1.1±0.3 fold
ABCG5 mRNA (B16F10 cells; B16F10, siCT): 3.6±0.6 fold
ABCG8 mRNA (B16F10 cells; B16F10, siCT): 1.5±0.1 fold
LC3A mRNA (B16F10 cells; B16F10, siCT): 1.0±0.3 fold
LC3B mRNA (B16F10 cells; B16F10, siCT): 1.3±0.1 fold
LDLR mRNA (B16F10 cells; B16F10, siCT): 1.7±0.1 fold
NOR1 mRNA (B16F10 cells; B16F10, siCT): 1.9±0.2 fold
Nur77 mRNA (B16F10 cells; B16F10, siCT): 0.9±0.3 fold
SCD1 mRNA (B16F10 cells; B16F10, siCT): 1.6±0.2 fold
SREBP1 mRNA (B16F10 cells; B16F10, siCT): 3.3±0.1 fold
SULT2b1b mRNA (B16F10 cells; B16F10, siCT): 3.2±0.2 fold
ABCA1 mRNA (B16F10 cells; B16F10, siLXRβ): 2.0±0.4 fold
ABCG1 mRNA (B16F10 cells; B16F10, siLXRβ): 1.0±0.1 fold
ABCG5 mRNA (B16F10 cells; B16F10, siLXRβ): 1.0±0.2 fold
ABCG8 mRNA (B16F10 cells; B16F10, siLXRβ): 1.1±0.2 fold
LC3A mRNA (B16F10 cells; B16F10, siLXRβ): 1.0±0.2 fold
LC3B mRNA (B16F10 cells; B16F10, siLXRβ): 1.2±0.3 fold
LDLR mRNA (B16F10 cells; B16F10, siLXRβ): 1.0±0.2 fold
NOR1 mRNA (B16F10 cells; B16F10, siLXRβ): 0.7±0.3 fold
Nur77 mRNA (B16F10 cells; B16F10, siLXRβ): 0.6±0.2 fold
SCD1 mRNA (B16F10 cells; B16F10, siLXRβ): 0.9±0.1 fold
SREBP1 mRNA (B16F10 cells; B16F10, siLXRβ): 0.9±0.2 fold
SULT2b1b mRNA (B16F10 cells; B16F10, siLXRβ): 1.2±0.3 fold
LC3-II protein, densitometry relative to control (SKMEL-28 cells): 0.9
